# Test results published in BindingDB's records for doi:10.1021/jm000119i (Rensselaer Polytechnic Institute, 2000).
# Assay: Binding affinity to displace radioligand [3H]naltrindole on Opioid receptor delta 1 in guinea pig membranes.
row,SMILES,Ki
1,CN1CC[C@]23c4c5ccc(N)c4O[C@H]2[C@@H](O)C=C[C@H]3[C@H]1C5,2400 nM
2,CNc1ccc2c3c1O[C@H]1[C@@H](O)C=C[C@H]4[C@@H](C2)N(C)CC[C@@]341,5700 nM
3,CN(C)c1ccc2c3c1O[C@H]1[C@@H](O)C=C[C@H]4[C@@H](C2)N(C)CC[C@@]341,1600 nM
4,CN1CC[C@]23c4c5ccc(NCc6ccccc6)c4O[C@H]2[C@@H](O)C=C[C@H]3[C@H]1C5,5500 nM
5,CN1CC[C@]23c4c5ccc(Nc6ccccc6)c4O[C@H]2[C@@H](O)C=C[C@H]3[C@H]1C5,1500 nM
